Measured values published in the NIST ThermoML archive (doi:10.1021/je500804j).

Assay: mn = molality of the nth substance listed, in mol/kg
Settings: 101 kPa, Liquid, Alternating current cell with electrodes

CCCCCCCC[N+](C)(C)CCCCCCCCCCCC[N+](C)(C)CCCCCCCC.[Br-].[Br-] + O
electrical conductivity [S/m]
Settings	318.15 K	323.15 K
m1 = 0.00357	–	0.08471
m1 = 0.00693	–	0.1849
m1 = 0.01009	–	0.2444
m1 = 0.01308	–	0.3157
m1 = 0.01591	–	0.3898
m1 = 0.01801	0.3868	–
m1 = 0.01859	–	0.436
m1 = 0.01939	0.4168	–
m1 = 0.02073	0.43	–
m1 = 0.02113	–	0.483
m1 = 0.02204	0.4546	–
m1 = 0.0228	0.465	–
m1 = 0.02355	–	0.5236
m1 = 0.02356	0.4755	–
m1 = 0.02431	0.4857	–
m1 = 0.02577	0.5063	–
m1 = 0.02585	–	0.561
m1 = 0.02648	0.5133	–
m1 = 0.02718	0.5232	–
m1 = 0.02787	0.5323	–
m1 = 0.02803	–	0.5895
m1 = 0.02856	0.5407	–
m1 = 0.02909	–	0.6082
m1 = 0.02923	0.5499	–
m1 = 0.02989	0.5578	–
m1 = 0.03012	–	0.623
m1 = 0.03113	–	0.6393
m1 = 0.03119	0.5732	–
m1 = 0.03211	–	0.6494
m1 = 0.03245	0.5881	–
m1 = 0.03307	0.5997	0.6638
m1 = 0.03368	0.6044	–
m1 = 0.03401	–	0.6772
m1 = 0.03428	0.6091	–
m1 = 0.03488	0.6155	–
m1 = 0.03512	–	0.6913
m1 = 0.03546	0.6234	–
m1 = 0.03566	–	0.6951
m1 = 0.03604	0.6307	–
m1 = 0.03619	–	0.6993
m1 = 0.03661	0.6379	–
m1 = 0.03671	–	0.7037
m1 = 0.03717	0.6434	–
m1 = 0.03775	–	0.7171
m1 = 0.03825	–	0.7266
m1 = 0.03828	0.655	–
m1 = 0.03875	–	0.7317
m1 = 0.03918	0.6646	–
m1 = 0.03925	–	0.7354
m1 = 0.03973	–	0.7413
m1 = 0.04006	0.6728	–
m1 = 0.04069	–	0.7517
m1 = 0.04092	0.681	–
m1 = 0.04116	–	0.7566
m1 = 0.04162	–	0.7617
m1 = 0.04176	0.6915	–
m1 = 0.04208	–	0.7694
m1 = 0.04254	–	0.7737
m1 = 0.04259	0.6986	–
m1 = 0.04328	–	0.7801
m1 = 0.04401	–	0.7896
m1 = 0.04419	0.7143	–
m1 = 0.04472	–	0.8
m1 = 0.04542	–	0.8049
m1 = 0.04573	0.732	–
m1 = 0.04611	–	0.8129
m1 = 0.04678	–	0.8211
m1 = 0.04721	0.7463	–
m1 = 0.04745	–	0.831
m1 = 0.0481	–	0.8348
m1 = 0.04863	0.7603	–
m1 = 0.04936	–	0.8479
m1 = 0.05001	0.7719	–
m1 = 0.05058	–	0.8638
m1 = 0.05133	0.7858	–
m1 = 0.05176	–	0.8724
